Test results: ChEMBL document CHEMBL4673334, “In Vivo Biological Evaluation of a Synthetic Royleanone Derivative as a Promising Fast-Acting Trypanocidal Agent by Inducing Mitochondrial-Dependent Necrosis” (J Nat Prod, 2020)
The source made the active and inactive calls. The rule behind the calls is not given here.

Key:
[1] = Toxicity in BALB/c mouse infected with Trypanosomal Trypanosoma cruzi MHOM/Pe/2011/Arequipa(DTU V) assessed as effect on uric acid level at 20 mg/kg, po administered for 5 days starting at 9 days post infection and measured after 2 days post treatment; format: organism-based; conditions: in vivo, 120 h, time 5 day
Trypanosoma cruzi [2] = assay: Antitrypanosomal activity against Trypanosoma cruzi MHOM/Pe/2011/Arequipa(DTU V) amastigote form infected in BALB/c mouse assessed as reduction in parasitaemia at 20 mg/kg, po for 5 days and measured after 55 days post infection; format: functional, organism-based; conditions: time 5.0 day
Trypanosoma cruzi [3] = assay: Antitrypanosomal activity against Trypanosoma cruzi TINF/CH/1956/Tulahuen (DTU VI) amastigote form infected in Vero cells assessed as parasite growth inhibition incubated for 72 hrs by Giemsa-staining based assay; format: functional, organism-based
[4] = Toxicity in BALB/c mouse infected with Trypanosomal Trypanosoma cruzi MHOM/Pe/2011/Arequipa(DTU V) assessed as effect on LDH level at 20 mg/kg, po administered for 5 days starting at 9 days post infection and measured after 2 days post treatment; format: organism-based; conditions: in vivo, 120 h, time 5 day
Trypanosoma cruzi [5] = assay: Antitrypanosomal activity against Trypanosoma cruzi MHOM/Pe/2011/Arequipa(DTU V) epimastigote form assessed as disruption of ethanol end product level at IC25 concentration incubated for 72 hrs by NMR spectrometric analysis; format: functional, organism-based
Trypanosoma cruzi [6] = assay: Antitrypanosomal activity against Trypanosoma cruzi MHOM/Pe/2011/Arequipa(DTU V) epimastigote form assessed as disruption of L-alanine level at IC25 concentration incubated for 72 hrs by NMR spectrometric analysis; format: functional, organism-based
[7] = Toxicity in BALB/c mouse infected with Trypanosomal Trypanosoma cruzi MHOM/Pe/2011/Arequipa(DTU V) assessed as effect on […] level at 20 mg/kg, po administered for 5 days starting at 100 days post infection and measured after 2 days post treatment; format: organism-based; conditions: in vivo, 120 h, time 5 day
[8] = Toxicity in BALB/c mouse infected with Trypanosomal Trypanosoma cruzi MHOM/Pe/2011/Arequipa(DTU V) assessed as effect on total bilirubin level at 20 mg/kg, po administered for 5 days starting at 100 days post infection and measured after 2 days post treatment; format: organism-based; conditions: in vivo, 120 h, time 5 day
[9] = Toxicity in BALB/c mouse infected with Trypanosomal Trypanosoma cruzi MHOM/Pe/2011/Arequipa(DTU V) assessed as effect on uric acid level at 20 mg/kg, po administered for 5 days starting at 100 days post infection and measured after 2 days post treatment; format: organism-based; conditions: in vivo, 120 h, time 5 day
Trypanosoma cruzi [10] = assay: Antitrypanosomal activity against Trypanosoma cruzi MHOM/Pe/2011/Arequipa(DTU V) epimastigote form assessed as disruption of D-lactate level at IC25 concentration incubated for 72 hrs by NMR spectrometric analysis; format: functional, organism-based
Trypanosoma cruzi [11] = assay: Inhibition of nucleic acid level in Trypanosoma cruzi MHOM/Pe/2011/Arequipa(DTU V) epimastigote form at IC25 concentration after 72 hrs by Rho (FITC-A) staining based flow cytometric analysis; format: functional
Trypanosoma cruzi [12] = assay: Antitrypanosomal activity against Trypanosoma cruzi MHOM/Pe/2011/Arequipa(DTU V) epimastigote form assessed as disruption of acetate level at IC25 concentration incubated for 72 hrs by NMR spectrometric analysis; format: functional, organism-based
Trypanosoma cruzi [13] = assay: Antitrypanosomal activity against Trypanosoma cruzi MHOM/Pe/2011/Arequipa(DTU V) amastigote form infected in Vero cells assessed as parasite growth inhibition at 50 uM incubated for 72 hrs by Giemsa-staining based assay relative to control; format: functional
[14] = Toxicity in BALB/c mouse infected with Trypanosomal Trypanosoma cruzi MHOM/Pe/2011/Arequipa(DTU V) assessed as effect on LDH level at 20 mg/kg, po administered for 5 days starting at 100 days post infection and measured after 2 days post treatment; format: organism-based; conditions: in vivo, 120 h, time 5 day
[15] = Toxicity in BALB/c mouse infected with Trypanosomal Trypanosoma cruzi MHOM/Pe/2011/Arequipa(DTU V) assessed as effect on total bilirubin level at 20 mg/kg, po administered for 5 days starting at 9 days post infection and measured after 2 days post treatment; format: organism-based; conditions: in vivo, 120 h, time 5 day
Trypanosoma cruzi [16] = assay: Antitrypanosomal activity against Trypanosoma cruzi MHOM/Pe/2011/Arequipa(DTU V) epimastigote form assessed as disruption of succinic acid level at IC25 concentration incubated for 72 hrs by NMR spectrometric analysis; format: functional, organism-based
Trypanosoma cruzi [17] = assay: Antitrypanosomal activity against Trypanosoma cruzi MHOM/Pe/2011/Arequipa(DTU V) amastigote form infected in BALB/c mouse assessed as reactivation parasitaemia at 20 mg/kg, po administered for 5 days starting at 9 days post infection and measured up to 145 days post infection relative to control; format: functional
[18] = Toxicity in BALB/c mouse infected with Trypanosomal Trypanosoma cruzi MHOM/Pe/2011/Arequipa(DTU V) assessed as effect on ALP level at 20 mg/kg, po administered for 5 days starting at 100 days post infection and measured after 2 days post treatment; format: organism-based; conditions: in vivo, 120 h, time 5 day
[19] = Toxicity in BALB/c mouse infected with Trypanosomal Trypanosoma cruzi MHOM/Pe/2011/Arequipa(DTU V) assessed as reduction in weight at 20 mg/kg, po administered for 5 days starting at 100 days post infection and measured up to 145 days post infection; format: organism-based; conditions: in vivo, 120 h, time 5 day
[20] = Toxicity in BALB/c mouse infected with Trypanosomal Trypanosoma cruzi MHOM/Pe/2011/Arequipa(DTU V) assessed as reduction in survival at 20 mg/kg, po administered for 5 days starting at 100 days post infection and measured up to 145 days post infection; format: organism-based; conditions: in vivo, 120 h, time 5 day
Trypanosoma cruzi [21] = assay: Antitrypanosomal activity against Trypanosoma cruzi MHOM/Pe/2011/Arequipa(DTU V) epimastigote form assessed as disruption of glycerol level at IC25 concentration incubated for 72 hrs by NMR spectrometric analysis; format: functional, organism-based
[22] = Toxicity in BALB/c mouse infected with Trypanosomal Trypanosoma cruzi MHOM/Pe/2011/Arequipa(DTU V) assessed as effect on ALT/GPT level at 20 mg/kg, po administered for 5 days starting at 9 days post infection and measured after 2 days post treatment; format: organism-based; conditions: in vivo, 120 h, time 5 day
Trypanosoma cruzi [23] = assay: Antitrypanosomal activity against Trypanosoma cruzi TINF/CH/1956/Tulahuen (DTU VI) epimastigote form assessed as parasite growth inhibition incubated for 48 hrs by resazurin dye based assay; format: functional, organism-based
[24] = Selectivity index, ratio of IC50 for cytotoxicity against African green monkey Vero cells to IC50 for antitrypanosomal activity against Trypanosoma cruzi IRHOD/CO/2008/SN3 (DTU I) amastigote form infected in Vero cells; format: toxicity, cell-based; conditions: read-out: Ratio IC50
[25] = Toxicity in BALB/c mouse infected with Trypanosomal Trypanosoma cruzi MHOM/Pe/2011/Arequipa(DTU V) assessed as effect on ALT/GPT level at 20 mg/kg, po administered for 5 days starting at 100 days post infection and measured after 2 days post treatment; format: organism-based; conditions: in vivo, 120 h, time 5 day
[26] = Toxicity in BALB/c mouse infected with Trypanosomal Trypanosoma cruzi MHOM/Pe/2011/Arequipa(DTU V) assessed as reduction in survival at 20 mg/kg, po administered for 5 days starting at 9 days post infection and measured up to 145 days post infection; format: organism-based; conditions: in vivo, 120 h, time 5 day
Trypanosoma cruzi [27] = assay: Antitrypanosomal activity against Trypanosoma cruzi MHOM/Pe/2011/Arequipa(DTU V) amastigote form infected in Vero cells assessed as parasite growth inhibition incubated for 72 hrs by Giemsa-staining based assay; format: functional, organism-based

Compound	Activity [1]	Activity (Trypanosoma cruzi [2])	IC50 (Trypanosoma cruzi [3]) [µM]	Activity [4]	Activity (Trypanosoma cruzi [5])	Activity (Trypanosoma cruzi [6])	Activity [7]	Activity [8]	Activity [9]	Activity (Trypanosoma cruzi [10])	inhibition (Trypanosoma cruzi [11]) [%]	Activity (Trypanosoma cruzi [12])	inhibition at 50 µM (Trypanosoma cruzi [13]) [%]	Activity [14]	Activity [15]	Activity (Trypanosoma cruzi [16])	Activity [18]	Activity [19]	Activity [20]	Activity (Trypanosoma cruzi [21])	other results
COC(=O)[C@]1(C)CCC[C@]2(C)C3=C(C=C[C@@H]12)C(=O)C(C(C)C)=CC3=O	Non-Toxic	Active	7.1	Non-Toxic	Active	inactive	Non-Toxic	Non-Toxic	Non-Toxic	inactive	50.4	inactive	100	Non-Toxic	Non-Toxic	Active	Non-Toxic	Non-Toxic	Non-Toxic	Active	Activity (Trypanosoma cruzi [17]; time 5 day): 52%; Activity [22]: Non-Toxic; IC50 (Trypanosoma cruzi [23]): 2.1 µM; selectivity ratio [24]: > 40; Activity [25]: Non-Toxic; Activity [26]: Non-Toxic; IC50 (Trypanosoma cruzi [27]): 4.8 µM
CC(C)c1cc(C=O)c([C@@]2(C)CCCC(C)(C)C2=O)cc1O	Non-Toxic	Active	8.8	Non-Toxic	Active	inactive	Non-Toxic	Non-Toxic	Non-Toxic	inactive	36.4	inactive	100	Non-Toxic	Non-Toxic	Active	Non-Toxic	Non-Toxic	Non-Toxic	Active	Activity (Trypanosoma cruzi [17]; time 5.0 day): Active; Activity [22]: Non-Toxic; IC50 (Trypanosoma cruzi [23]): 13.5 µM; selectivity ratio [24]: > 40; Activity [25]: Non-Toxic; Activity [26]: Non-Toxic; IC50 (Trypanosoma cruzi [27]): 9.2 µM
